According to patent US11413348B2, “Low molecular weight cationic lipids for oligonucleotide delivery” (SIRNA THERAPEUTICS, INC., priority 2010, dated 2022):

Assays:
[1] = Determination of cationic lipid levels in monkey liver (LC/MS-MS); type: in vivo; details: monkeys, FIG. 7
Description: Liver tissue was weighed into 20-ml vials and homogenized in 9 v/w of water using a GenoGrinder 2000 (OPS Diagnostics, 1600 strokes/min, 5 min). A 50 μL aliquot of each tissue homogenate was mixed with 300 μL of extraction/protein precipitating solvent (50/50 acetonitrile/methanol containing 500 nM internal standard) and the plate was centrifuged to sediment precipitated protein. A volume of 200 μL of each supernatant was then transferred to separate wells of a 96-well plate and 10 μl samples were directly analyzed by LC/MS-MS.
Standards were prepared by spiking known amounts of a methanol stock solution of compound into untreated rat liver homogenate (9 vol water/weight liver). Aliquots (50 μL) each standard/liver homogenate was mixed with 300 μL of extraction/protein precipitating solvent (50/50 acetonitrile/methanol containing 500 nM internal standard) and the plate was centrifuged to sediment precipitated protein. A volume of 200 μL of each supernatant was transferred to separate wells of a 96-well plate and 10 μl of each standard was directly analyzed by LC/MS-MS.
Absolute quantification versus standards prepared and extracted from liver homogenate was performed using an Aria LX-2 HPLC system (Thermo Scientific) coupled to an API 4000 triple quadrupole mass spectrometer (Applied Biosystems). […]

β-catenin mRNA = experiment: TRE-MET HCC mouse pharmacodynamic study (β-catenin mRNA by Taqman in liver and tumor); type: in vivo; details: intravenous, 72 hours; for knockdown of β-catenin mRNA in both liver and tumor tissues: FIGS. 8, 9, 12, 13
Description: The activity LNPs in delivering a β-catenin siRNA (siRNAβ-cat) to hepatocellular carcinoma was evaluated in a mouse hepatocellular carcinoma (HCC) model, named TRE-MET. TRE-MET mice are transgenic mice in an FVB/N genetic background where the human MET transgene is expressed under an hCMV promoter with hepatamerized upstream tet-operators. When TRE-MET mice are crossed with the LAP-tTA line, the double transgenic (TRE-MET/LAP-tTA) mice express MET in a liver-specific manner which can be suppressed by administration of doxycycline. These mice develop HCC at 3 months of age with visually identifiable tumor nodules on the liver surface and the tumors display a diffuse trabecular growth pattern typical for HCC and express the HCC tumor marker alpha-fetoprotein (AFP). In addition, the mutation analysis in the tumor of TRE-MET mice has also identified activating mutations in the beta-catenin gene in approximately 95% of tumors. These features make the TRE-MET HCC mouse model suitable for evaluating LNP-mediated delivery of β-catenin siRNA and the resultant efficacy on tumor growth.
The effect of β-catenin containing LNPs in silencing β-catenin mRNA in both liver and tumor tissues was first evaluated in a pharmacodynamic (PD) study in TRE-MET mice bearing tumors. Different doses of LNPs or a high dose of LNPcontrol siRNA were intravenously administered and 72 hours later, necropsy was performed to collect liver and tumor tissues for the determination of β-catenin mRNA levels by Taqman. […] The KD in tumors ranges from 70% (2 mpk) to about 40% (0.1 or 0.05 mpk).

Row | Structure (SMILES) | cationic lipid liver levels compared with RDV containing DLinKC2DMA (Compound 45) or MC3 (Compound 46) [1] | β-catenin mRNA KD in normal liver (β-catenin mRNA; 0.05 mpk) | β-catenin mRNA KD in normal liver (β-catenin mRNA; 0.1 mpk) | β-catenin mRNA KD in tumors (β-catenin mRNA; 0.1 or 0.05 mpk) | β-catenin mRNA KD in tumors (β-catenin mRNA; 0.25 mpk) | knockdown of β-catenin mRNA in both liver and tumor tissues (β-catenin mRNA) | β-catenin mRNA KD in tumors (β-catenin mRNA; 2 mpk)
1 | CCCCC/C=C\C/C=C\CCCCCCCCCC(CCCCCCCCC)CCN(C)C (stereo not drawn) [Compound 32, (13Z,16Z)—N,N-dimethyl-3-nonyldocosa-13,16-dien-1-amine] | lower than | 78% | 76% | 20-30% | 47% | robust and dose-dependent knockdown | –
2 | CCCCCCCCCC(CCCCCCCC1CC1CCCCCCCC)N(C)C [Compound 33, N,N-dimethyl-1-[(1S,2R)-2-octylcyclopropyl]hepladecan-8-amine] | lower than | 69% | 88% | about 40% | – | robust and dose-dependent knockdown | 70%
